According to ChEMBL document CHEMBL5678818, “Discovery of potent SOS1 inhibitors that block RAS activation via disruption of the RAS-SOS1 interaction” (Proc Natl Acad Sci U S A, 2019):

Tests used:
[1] = molecular target: Phosphatidylinositol 3-kinase catalytic subunit type 3 (Homo sapiens) (UniProt Q8NEB9); test: Inhibition of VPS34 (unknown origin) assessed as residual activity at 1000 nM by KINOMEscan analysis relative to control
[2] = molecular target: Epithelial discoidin domain-containing receptor 1 (Homo sapiens) (UniProt Q08345); test: Inhibition of DDR1 (unknown origin) assessed as residual activity at 100 nM by KINOMEscan analysis relative to control
Sequence of Epithelial discoidin domain-containing receptor 1 (Homo sapiens) (Q08345 whole entry, the tested form may be a part): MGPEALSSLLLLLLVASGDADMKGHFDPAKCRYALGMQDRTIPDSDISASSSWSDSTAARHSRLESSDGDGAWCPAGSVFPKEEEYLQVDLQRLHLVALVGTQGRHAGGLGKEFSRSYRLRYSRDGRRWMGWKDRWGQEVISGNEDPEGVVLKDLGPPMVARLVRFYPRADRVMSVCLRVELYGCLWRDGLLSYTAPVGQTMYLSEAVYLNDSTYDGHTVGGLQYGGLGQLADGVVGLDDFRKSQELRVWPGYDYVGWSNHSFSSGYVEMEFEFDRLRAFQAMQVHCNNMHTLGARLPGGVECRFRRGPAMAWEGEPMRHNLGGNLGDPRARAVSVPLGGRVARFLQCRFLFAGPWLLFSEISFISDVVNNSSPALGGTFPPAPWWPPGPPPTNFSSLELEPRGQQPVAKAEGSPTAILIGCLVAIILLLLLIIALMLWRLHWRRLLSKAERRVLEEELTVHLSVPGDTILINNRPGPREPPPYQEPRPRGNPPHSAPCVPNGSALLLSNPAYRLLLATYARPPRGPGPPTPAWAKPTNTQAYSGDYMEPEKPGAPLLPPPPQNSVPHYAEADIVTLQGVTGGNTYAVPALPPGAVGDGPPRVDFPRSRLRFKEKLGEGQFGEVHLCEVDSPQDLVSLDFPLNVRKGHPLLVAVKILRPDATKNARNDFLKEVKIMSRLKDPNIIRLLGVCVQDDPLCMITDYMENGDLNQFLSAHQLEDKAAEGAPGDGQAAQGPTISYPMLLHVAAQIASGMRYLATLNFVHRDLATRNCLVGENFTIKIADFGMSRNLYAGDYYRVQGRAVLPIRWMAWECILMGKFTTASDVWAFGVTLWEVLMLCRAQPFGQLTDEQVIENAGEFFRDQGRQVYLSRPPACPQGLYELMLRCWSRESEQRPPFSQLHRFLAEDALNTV

[3] = molecular target: Eukaryotic translation initiation factor 2-alpha kinase 1 (Homo sapiens) (UniProt Q9BQI3); test: Inhibition of EIF2AK1 (unknown origin) assessed as residual activity at 100 nM by KINOMEscan analysis relative to control
Sequence of Eukaryotic translation initiation factor 2-alpha kinase 1 (Homo sapiens) (Q9BQI3 whole entry): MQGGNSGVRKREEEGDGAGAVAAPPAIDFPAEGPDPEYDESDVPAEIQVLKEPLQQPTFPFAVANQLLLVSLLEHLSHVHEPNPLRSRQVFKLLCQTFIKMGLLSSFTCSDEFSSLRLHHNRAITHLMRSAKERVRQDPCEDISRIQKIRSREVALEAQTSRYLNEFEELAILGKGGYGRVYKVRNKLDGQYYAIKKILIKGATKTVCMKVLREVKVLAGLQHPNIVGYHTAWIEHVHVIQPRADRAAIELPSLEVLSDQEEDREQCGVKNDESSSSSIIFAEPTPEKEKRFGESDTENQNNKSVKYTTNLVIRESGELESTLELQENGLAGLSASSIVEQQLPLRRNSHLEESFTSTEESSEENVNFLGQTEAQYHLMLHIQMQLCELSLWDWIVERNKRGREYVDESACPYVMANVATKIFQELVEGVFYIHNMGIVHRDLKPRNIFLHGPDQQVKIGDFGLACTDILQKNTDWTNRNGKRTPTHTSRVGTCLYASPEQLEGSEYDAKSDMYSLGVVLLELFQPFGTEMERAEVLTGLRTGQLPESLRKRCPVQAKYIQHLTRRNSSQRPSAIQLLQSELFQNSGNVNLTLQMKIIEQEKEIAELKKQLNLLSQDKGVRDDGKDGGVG

[4] = molecular target: T1, Ephrin type-A receptor 1 (Homo sapiens) (UniProt P21709); test: Inhibition of EPHA1 (unknown origin) assessed as residual activity at 100 nM by KINOMEscan analysis relative to control
T1 sequence (whole entry): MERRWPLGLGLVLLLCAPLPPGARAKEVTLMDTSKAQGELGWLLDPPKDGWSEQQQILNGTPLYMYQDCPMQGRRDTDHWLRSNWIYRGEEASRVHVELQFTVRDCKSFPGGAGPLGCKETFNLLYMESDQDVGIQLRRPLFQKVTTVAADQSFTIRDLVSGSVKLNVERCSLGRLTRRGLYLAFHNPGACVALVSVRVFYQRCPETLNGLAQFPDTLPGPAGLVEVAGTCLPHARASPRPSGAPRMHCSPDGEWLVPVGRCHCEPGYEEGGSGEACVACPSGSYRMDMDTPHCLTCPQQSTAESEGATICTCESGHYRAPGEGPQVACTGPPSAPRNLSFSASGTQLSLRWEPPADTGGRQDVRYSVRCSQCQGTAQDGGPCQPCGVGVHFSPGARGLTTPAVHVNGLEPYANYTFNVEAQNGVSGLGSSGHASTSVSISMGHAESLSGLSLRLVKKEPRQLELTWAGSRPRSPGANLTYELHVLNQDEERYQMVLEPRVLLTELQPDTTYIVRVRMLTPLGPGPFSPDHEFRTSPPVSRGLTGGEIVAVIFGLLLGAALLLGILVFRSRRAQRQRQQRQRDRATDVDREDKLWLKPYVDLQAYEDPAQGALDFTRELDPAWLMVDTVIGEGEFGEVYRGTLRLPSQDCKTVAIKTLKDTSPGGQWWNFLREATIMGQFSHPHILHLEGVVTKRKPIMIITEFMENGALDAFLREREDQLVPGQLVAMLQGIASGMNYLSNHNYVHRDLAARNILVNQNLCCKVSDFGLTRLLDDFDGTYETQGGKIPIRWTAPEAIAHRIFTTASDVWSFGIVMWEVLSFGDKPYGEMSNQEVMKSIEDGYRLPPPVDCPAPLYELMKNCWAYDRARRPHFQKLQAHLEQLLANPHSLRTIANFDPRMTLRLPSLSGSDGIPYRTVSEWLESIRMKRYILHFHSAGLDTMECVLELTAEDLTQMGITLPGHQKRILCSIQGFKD

[5] = molecular target: Receptor tyrosine-protein kinase erbB-3 (Homo sapiens) (UniProt P21860); test: Inhibition of ERBB3 (unknown origin) assessed as residual activity at 100 nM by KINOMEscan analysis relative to control
Sequence of Receptor tyrosine-protein kinase erbB-3 (Homo sapiens) (P21860 whole entry): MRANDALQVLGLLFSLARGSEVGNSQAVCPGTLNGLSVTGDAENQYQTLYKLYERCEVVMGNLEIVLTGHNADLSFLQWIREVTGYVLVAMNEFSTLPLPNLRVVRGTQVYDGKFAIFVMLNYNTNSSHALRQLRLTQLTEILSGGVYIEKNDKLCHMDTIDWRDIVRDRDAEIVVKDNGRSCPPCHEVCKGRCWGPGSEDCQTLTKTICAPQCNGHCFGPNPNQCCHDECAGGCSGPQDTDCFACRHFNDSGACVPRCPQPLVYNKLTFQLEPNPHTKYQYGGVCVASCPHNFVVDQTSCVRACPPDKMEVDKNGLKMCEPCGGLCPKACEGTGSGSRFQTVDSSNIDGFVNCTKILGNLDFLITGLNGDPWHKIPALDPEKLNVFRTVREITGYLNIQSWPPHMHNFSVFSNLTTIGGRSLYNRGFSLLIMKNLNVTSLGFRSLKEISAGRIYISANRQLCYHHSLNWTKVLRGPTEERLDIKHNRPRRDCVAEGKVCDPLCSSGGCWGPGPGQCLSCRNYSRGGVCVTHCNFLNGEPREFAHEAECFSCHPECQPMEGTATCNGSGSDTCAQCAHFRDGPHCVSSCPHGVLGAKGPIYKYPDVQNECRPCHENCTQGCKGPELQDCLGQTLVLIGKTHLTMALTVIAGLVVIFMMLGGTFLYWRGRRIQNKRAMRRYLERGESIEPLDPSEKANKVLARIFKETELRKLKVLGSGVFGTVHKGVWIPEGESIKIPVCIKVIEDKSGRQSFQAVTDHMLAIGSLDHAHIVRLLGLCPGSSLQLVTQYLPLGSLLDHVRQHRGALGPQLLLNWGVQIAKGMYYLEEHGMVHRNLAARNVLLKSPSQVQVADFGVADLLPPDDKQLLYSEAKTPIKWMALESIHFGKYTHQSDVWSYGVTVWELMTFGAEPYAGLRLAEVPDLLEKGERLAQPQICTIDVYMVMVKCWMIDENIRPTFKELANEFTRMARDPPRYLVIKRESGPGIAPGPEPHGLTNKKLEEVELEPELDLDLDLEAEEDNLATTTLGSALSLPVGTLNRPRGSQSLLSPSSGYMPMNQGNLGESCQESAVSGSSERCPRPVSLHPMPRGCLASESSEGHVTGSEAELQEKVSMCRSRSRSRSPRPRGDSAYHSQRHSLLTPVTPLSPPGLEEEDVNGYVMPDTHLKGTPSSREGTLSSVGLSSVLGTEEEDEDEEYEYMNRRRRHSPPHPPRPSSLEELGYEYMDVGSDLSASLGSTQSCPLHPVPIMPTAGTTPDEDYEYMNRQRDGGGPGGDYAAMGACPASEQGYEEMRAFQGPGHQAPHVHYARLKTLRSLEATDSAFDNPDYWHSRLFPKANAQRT

[6] = molecular target: T2, Inhibitor of nuclear factor kappa-B kinase subunit beta (Homo sapiens) (UniProt O14920); test: Inhibition of IKK-beta (unknown origin) assessed as residual activity at 100 nM by KINOMEscan analysis relative to control
T2 sequence (whole entry): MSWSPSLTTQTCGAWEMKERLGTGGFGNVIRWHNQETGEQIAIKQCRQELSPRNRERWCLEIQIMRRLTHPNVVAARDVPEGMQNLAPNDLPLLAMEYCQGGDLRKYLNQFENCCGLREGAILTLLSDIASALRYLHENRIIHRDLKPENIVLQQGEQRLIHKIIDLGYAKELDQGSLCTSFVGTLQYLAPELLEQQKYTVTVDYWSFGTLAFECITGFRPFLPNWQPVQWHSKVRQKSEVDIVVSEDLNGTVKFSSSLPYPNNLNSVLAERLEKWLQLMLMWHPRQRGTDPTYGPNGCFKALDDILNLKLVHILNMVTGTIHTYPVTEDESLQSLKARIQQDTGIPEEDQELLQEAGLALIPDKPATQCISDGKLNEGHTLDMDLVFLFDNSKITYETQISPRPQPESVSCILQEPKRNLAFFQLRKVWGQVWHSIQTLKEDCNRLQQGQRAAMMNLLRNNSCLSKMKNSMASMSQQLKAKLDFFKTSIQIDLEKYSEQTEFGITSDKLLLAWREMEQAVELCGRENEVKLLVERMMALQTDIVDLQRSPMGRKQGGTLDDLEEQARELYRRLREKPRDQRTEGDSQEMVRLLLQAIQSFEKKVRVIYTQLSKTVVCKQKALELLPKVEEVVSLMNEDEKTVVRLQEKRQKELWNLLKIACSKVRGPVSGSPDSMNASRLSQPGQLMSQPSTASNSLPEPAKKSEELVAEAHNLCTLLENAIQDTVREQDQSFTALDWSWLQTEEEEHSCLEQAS

[7] = molecular target: Dual specificity mitogen-activated protein kinase kinase 1 (Homo sapiens) (UniProt Q02750); test: Inhibition of MEK1 (unknown origin) assessed as residual activity at 100 nM by KINOMEscan analysis relative to control
[8] = molecular target: T3, 3-phosphoinositide-dependent protein kinase 1 (Homo sapiens) (UniProt O15530); test: Inhibition of PDPK1 (unknown origin) assessed as residual activity at 100 nM by KINOMEscan analysis relative to control
T3 sequence (whole entry): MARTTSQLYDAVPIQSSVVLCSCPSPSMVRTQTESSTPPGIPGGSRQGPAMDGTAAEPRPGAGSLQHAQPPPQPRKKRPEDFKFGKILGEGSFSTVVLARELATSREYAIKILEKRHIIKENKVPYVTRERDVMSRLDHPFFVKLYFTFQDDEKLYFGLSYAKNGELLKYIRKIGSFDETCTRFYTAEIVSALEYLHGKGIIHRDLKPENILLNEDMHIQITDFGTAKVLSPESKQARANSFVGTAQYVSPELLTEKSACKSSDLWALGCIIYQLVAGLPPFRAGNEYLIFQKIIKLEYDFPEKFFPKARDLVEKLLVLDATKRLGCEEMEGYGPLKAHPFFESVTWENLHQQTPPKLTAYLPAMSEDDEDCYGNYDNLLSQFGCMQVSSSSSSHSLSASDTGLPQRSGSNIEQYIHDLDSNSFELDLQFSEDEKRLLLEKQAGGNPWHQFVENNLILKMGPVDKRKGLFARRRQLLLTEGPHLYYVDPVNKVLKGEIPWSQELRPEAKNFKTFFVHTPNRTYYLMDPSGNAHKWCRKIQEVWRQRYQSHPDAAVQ

[9] = molecular target: Serine/threonine-protein kinase N1 (Homo sapiens) (UniProt Q16512); test: Inhibition of PKN1 (unknown origin) assessed as residual activity at 100 nM by KINOMEscan analysis relative to control
Sequence of Serine/threonine-protein kinase N1 (Homo sapiens) (Q16512 2-942 limits assumed): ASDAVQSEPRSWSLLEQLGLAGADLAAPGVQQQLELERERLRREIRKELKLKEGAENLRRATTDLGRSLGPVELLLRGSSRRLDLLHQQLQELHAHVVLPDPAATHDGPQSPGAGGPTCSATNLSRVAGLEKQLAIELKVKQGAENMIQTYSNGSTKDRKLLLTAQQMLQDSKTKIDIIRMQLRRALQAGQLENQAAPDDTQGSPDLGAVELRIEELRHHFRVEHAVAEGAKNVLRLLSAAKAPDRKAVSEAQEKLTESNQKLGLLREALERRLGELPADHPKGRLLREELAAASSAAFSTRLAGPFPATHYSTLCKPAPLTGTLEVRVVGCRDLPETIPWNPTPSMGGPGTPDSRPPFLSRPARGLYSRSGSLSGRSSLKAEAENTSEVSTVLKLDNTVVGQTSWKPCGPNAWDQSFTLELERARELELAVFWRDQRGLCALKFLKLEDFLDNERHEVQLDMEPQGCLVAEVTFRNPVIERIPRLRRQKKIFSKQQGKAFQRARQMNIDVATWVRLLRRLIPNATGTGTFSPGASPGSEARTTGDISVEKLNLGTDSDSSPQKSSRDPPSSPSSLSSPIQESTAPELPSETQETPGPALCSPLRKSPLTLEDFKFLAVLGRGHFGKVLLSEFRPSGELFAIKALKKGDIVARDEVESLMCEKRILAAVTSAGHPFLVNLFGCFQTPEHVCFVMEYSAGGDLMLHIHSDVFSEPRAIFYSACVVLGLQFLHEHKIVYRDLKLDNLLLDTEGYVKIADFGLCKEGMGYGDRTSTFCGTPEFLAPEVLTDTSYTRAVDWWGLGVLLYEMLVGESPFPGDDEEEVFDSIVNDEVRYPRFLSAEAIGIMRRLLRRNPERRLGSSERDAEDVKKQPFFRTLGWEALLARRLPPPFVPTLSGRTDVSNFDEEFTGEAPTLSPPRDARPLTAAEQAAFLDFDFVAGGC

Sequence of Phosphatidylinositol 3-kinase catalytic subunit type 3 (Homo sapiens) (Q8NEB9 whole entry, the tested form may be a part): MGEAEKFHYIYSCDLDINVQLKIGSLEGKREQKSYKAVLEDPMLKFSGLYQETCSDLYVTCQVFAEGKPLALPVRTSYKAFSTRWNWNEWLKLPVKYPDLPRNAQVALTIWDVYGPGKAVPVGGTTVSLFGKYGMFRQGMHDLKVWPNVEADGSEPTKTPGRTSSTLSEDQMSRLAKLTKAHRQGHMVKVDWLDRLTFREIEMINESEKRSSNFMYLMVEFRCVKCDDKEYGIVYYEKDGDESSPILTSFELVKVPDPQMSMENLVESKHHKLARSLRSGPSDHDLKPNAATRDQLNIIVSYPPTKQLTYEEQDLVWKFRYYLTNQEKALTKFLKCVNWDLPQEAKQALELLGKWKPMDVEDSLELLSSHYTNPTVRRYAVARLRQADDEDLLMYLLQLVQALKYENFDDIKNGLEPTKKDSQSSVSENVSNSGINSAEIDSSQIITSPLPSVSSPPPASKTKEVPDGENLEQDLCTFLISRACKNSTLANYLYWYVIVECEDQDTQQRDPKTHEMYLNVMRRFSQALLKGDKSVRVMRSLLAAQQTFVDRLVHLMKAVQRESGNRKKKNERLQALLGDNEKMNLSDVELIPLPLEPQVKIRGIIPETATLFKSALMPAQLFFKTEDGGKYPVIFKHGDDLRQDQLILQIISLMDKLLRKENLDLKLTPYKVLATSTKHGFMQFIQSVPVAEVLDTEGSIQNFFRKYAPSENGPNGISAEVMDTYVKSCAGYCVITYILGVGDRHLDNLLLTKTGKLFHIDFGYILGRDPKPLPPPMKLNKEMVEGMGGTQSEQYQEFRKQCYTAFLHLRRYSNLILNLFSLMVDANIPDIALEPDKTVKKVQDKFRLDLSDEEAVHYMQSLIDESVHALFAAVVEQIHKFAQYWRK

Row | Structure (SMILES) | Activity [1] [%] | Activity [2] [%] | Activity [3] [%] | Activity [4] [%] | Activity [5] [%] | Activity [6] [%] | Activity [7] [%] | Activity [8] [%] | Activity [9] [%]
1 | COc1cc2nc(C)nc(N[C@H](C)c3cccc(-c4cn[nH]c4)c3)c2cc1OC | 100 | – | – | – | – | – | – | – | –
2 | COc1cc2ncnc(N[C@H](C)c3cccc4ccccc34)c2cc1OC | – | 100 | 67 | 75 | 89 | 84 | 98 | 79 | 92
